ChEMBL document CHEMBL1131778, “Solid phase synthesis of quinolones” (1999)

Columns and labels:
Brugia malayi [1] = assay: In vitro anti-filarial activity against female adult worms of Brugia. malayi at 100 uM concentration, using MTT reduction potential assay.; assay type: functional
Brugia malayi [2] = assay: In vitro anti-filarial activity of the compound against male adult worms of Brugia. malayi at 100 uM concentration, using MTT reduction potential assay.; assay type: functional
Brugia malayi [3] = assay: In vitro anti-filarial activity against female adult worms of Brugia. malayi at 100 uM concentration, using motility assay; D = Dead worms; assay type: functional, organism-based
Brugia malayi [4] = assay: In vitro anti-filarial activity against male adult worms of Brugia. malayi at 100 uM concentration, using motility assay; D = Dead worms; assay type: functional, organism-based
Brugia malayi [5] = assay: In vitro anti-filarial activity against male adult worms of Brugia. malayi at 100 uM concentration, using MTT reduction potential assay.; assay type: functional
Brugia malayi [6] = assay: In vitro anti-filarial activity against female adult worms of Brugia. malayi at 100 uM concentration, using motility assay.; assay type: functional
Brugia malayi [7] = assay: In vitro anti-filarial activity against male adult worms of Brugia. malayi at 100 uM concentration, using motility assay.; assay type: functional
Brugia malayi [8] = assay: In vitro anti-filarial activity against female adult worms of Brugia. malayi at 100 uM concentration, using motility assay; assay type: functional
Brugia malayi [9] = assay: In vitro anti-filarial activity against male adult worms of Brugia. malayi at 100 uM concentration, using motility assay D = Dead worms; assay type: functional, organism-based

SMILES	inhibition at 100 µM (Brugia malayi [1]) [%]	inhibition at 100 µM (Brugia malayi [2]) [%]	Mortality (Brugia malayi [3])	Mortality (Brugia malayi [4])	inhibition at 100 µM (Brugia malayi [5]) [%]	Mortality (Brugia malayi [6])	Mortality (Brugia malayi [7])	Mortality (Brugia malayi [8])	Mortality (Brugia malayi [9])
CCCCCCNC(=O)c1cnc2ccc(C(=O)O)cc2c1O	64.8	58.8	Dead worms	Dead worms	–	–	–	–	–
CCOC(=O)c1cnc2ccc(C(=O)O)cc2c1O	0	–	–	–	0	3	3	–	–
O=C(O)c1ccc2ncc(C(=O)NC3CCCCC3)c(O)c2c1	0	–	–	–	0	–	3	3	–
O=C(O)c1ccc2ncc(C(=O)NC3CCCCCC3)c(O)c2c1	0	–	–	–	0	3	3	–	–
CCCCCCCCNC(=O)c1cnc2ccc(C(=O)O)cc2c1O	84.8	–	Dead worms	–	62.8	–	–	–	Dead worms
